Experimental data as given in US11629171B2, “Beta-hairpin peptidomimetics” (POLYPHOR AG, priority 2017, dated 2023).
Values after ≈ are worked out from the molar mass of the structure shown. Where a SMILES comes first, the peptide text is derived from it. Bridges are numbered along the chain shown (N, C = ends). Roman numbers before positions name the chains, in order. [ ]: non-standard residue; d: D form. The star is where a group is joined. Leu(3R-OH) = CC(C)[C@@H](O)[C@H](N)C(=O)O; Thr(ol) = C[C@@H](O)[C@H](N)CO; Tle = CC(C)(C)[C@H](N)C(=O)O; Hiv = CC(C)[C@H](O)C(=O)O; dDab = NCC[C@@H](N)C(=O)O; hSer = N[C@@H](CCO)C(=O)O; NHCH(CH2OH)2 = OCC(CO)N*; Orn = NCCC[C@H](N)C(=O)O; Dab = NCC[C@H](N)C(=O)O; Dap = NC[C@H](N)C(=O)O

Columns and labels:
Type in all cases: cell-based
Escherichia coli 926415 = settings: 926415
Summary of the method: (§1)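 Visible-growth endpoint after 18-20 h at 35° C defines the MIC (μg/mL). Setup: CLSI broth microdilution, MH-II cation-adjusted broth with P-80 at 0.002% final, inoculum of approximately 10^6 CFU/mL, two-fold serial peptide dilutions.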

[1] = test system: Acinetobacter baumannii 872842; settings: 872842
Summary of the method: as §1

[2] = test system: Pseudomonas aeruginosa ATCC 27853; settings: ATCC 27853
Summary of the method: as §1

[3] = test system: Klebsiella pneumoniae SSI #3010; settings: SSI #3010
Summary of the method: as §1

[4] = test system: Escherichia coli ATCC 25922; settings: ATCC 25922
Summary of the method: as §1

[5] = test system: Enterobacter cloacae 848840; settings: 848840
Summary of the method: as §1

[6] = test system: Klebsiella pneumoniae 968733; settings: 968733
Summary of the method: as §1

[7] = test system: Acinetobacter baumannii DSM 30008; settings: DSM 30008
Summary of the method: as §1

[8] = test system: human red blood cells (hRBC); test: Hemolysis; settings: red cells of human, 1 h, 200
Summary of the method: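 First, fresh human erythrocytes are washed in PBS; next, they are incubated at 20% (v/v) with compound at 200 μg/mL for 1 h at 37° C. Finally, centrifuged supernatants are diluted and OD540 is taken relative to the Triton X-100 lysis control.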

| MIC (Escherichia coli 926415) [µg/mL] | MIC [1] [µg/mL] | MIC [2] [µg/mL] | MIC [3] [µg/mL] | MIC [4] [µg/mL] | MIC [5] [µg/mL] | MIC [6] [µg/mL] | MIC [7] [µg/mL] | SMILES | Hemolysis at 200 μg/mL [8] [%] |
| --- | --- | --- | --- | --- | --- | --- | --- | --- | --- |
| 0.25 (≈ 0.105 µM) | 0.125 (≈ 0.0524 µM) | 0.25 (≈ 0.105 µM) | 0.125 (≈ 0.0524 µM) | 0.125 (≈ 0.0524 µM) | 0.25 (≈ 0.105 µM) | 0.5 (≈ 0.21 µM) | 0.125 (≈ 0.0524 µM) | CC(C)C[C@@H]1NC(=O)[C@@H](CC(C)C)NC(=O)[C@H](CCN)NC(=O)[C@@H](NC(=O)[C@H](CN)NC(=O)[C@@H](NC(=O)[C@H](CCN)NC(=O)CC[C@@H]2NC(=O)[C@@H](CCN)NC(=O)[C@H](CCCN)NC(=O)[C@H](CCN)NC(=O)[C@H](Cc3ccc(O)cc3)NC(=O)[C@@H](NC(=O)[C@@H](O)C(C)C)CSSC[C@@H](C(=O)NC(CO)CO)NC(=O)[C@H](C(C)(C)C)NC(=O)[C@H](CO)NC(=O)[C@H](Cc3c[nH]c4ccccc34)NC2=O)[C@@H](C)O)CCNC(=O)[C@H]([C@@H](C)O)NC(=O)[C@H](CCN)NC(=O)[C@H](CCN)NC1=O [Ex. 172] (I: H-[Hiv]CY[Dab][Orn][dDab]EWS[Tle]C-{NHCH(CH2OH)2} / II: [Dab]T[Dap][Dab][Dab][dL]L[Dab][Dab]T; disulfide I:2-I:11; amide I:7-II:N; lactam II:4-II:C) | <1 |
| 0.0625 (≈ 0.0262 µM) | 0.0625 (≈ 0.0262 µM) | 0.125 (≈ 0.0524 µM) | 0.0625 (≈ 0.0262 µM) | 0.0625 (≈ 0.0262 µM) | 0.0625 (≈ 0.0262 µM) | 0.0625 (≈ 0.0262 µM) | 0.03125 (≈ 0.0131 µM) | CC(C)C[C@@H]1NC(=O)[C@@H](CC(C)C)NC(=O)[C@H](CCN)NC(=O)[C@@H](NC(=O)[C@H](CCN)NC(=O)[C@@H](NC(=O)[C@H](CCN)NC(=O)CC[C@@H]2NC(=O)[C@H](CN)NC(=O)[C@H](Cc3ccc(O)cc3)NC(=O)[C@@H](NC(=O)[C@@H](O)C(C)C)CSSC[C@@H](C(=O)N[C@H](CO)[C@@H](C)O)NC(=O)[C@H](C(C)(C)C)NC(=O)[C@H](CO)NC(=O)[C@H](Cc3c[nH]c4ccccc34)NC(=O)[C@H](CCO)NC(=O)[C@@H](CCN)NC2=O)[C@@H](C)O)CCNC(=O)[C@H]([C@@H](C)O)NC(=O)[C@H](CCN)NC(=O)[C@H](CCN)NC1=O [Ex. 79] (I: H-[Hiv]CY[Dap]E[dDab][hSer]WS[Tle]C[Thr(ol)] / II: [Dab]T[Dab][Dab][Dab][dL]L[Dab][Dab]T; disulfide I:2-I:11; amide I:5-II:N; lactam II:4-II:C) | <1 |
| 1 (≈ 0.418 µM) | 1 (≈ 0.418 µM) | 0.25 (≈ 0.104 µM) | 0.5 (≈ 0.209 µM) | 0.25 (≈ 0.104 µM) | 8 (≈ 3.34 µM) | 8 (≈ 3.34 µM) | 0.5 (≈ 0.209 µM) | CC(C)C[C@@H]1NC(=O)[C@@H](CC(C)C)NC(=O)[C@H](CCN)NC(=O)[C@@H](NC(=O)[C@H](CCN)NC(=O)[C@@H](NC(=O)[C@H](CCN)NC(=O)CC[C@@H]2NC(=O)[C@H](CCN)NC(=O)[C@H](Cc3ccc(O)cc3)NC(=O)[C@@H](NC(=O)[C@@H](N)C(C)C)CC(=O)NCC[C@@H](C(=O)N[C@@H](CO)C(=O)O)NC(=O)[C@H](C(C)(C)C)NC(=O)[C@H](CO)NC(=O)[C@H](Cc3c[nH]c4ccccc34)NC(=O)[C@H]([C@@H](C)O)NC(=O)[C@@H](CCN)NC2=O)[C@@H](C)O)CCNC(=O)[C@H]([C@@H](C)O)NC(=O)[C@H](CCN)NC(=O)[C@H](CCN)NC1=O [Ex. 55] (I: H-VDY[Dab]E[dDab]TWS[Tle][Dab]S-OH / II: [Dab]T[Dab][Dab][Dab][dL]L[Dab][Dab]T; lactam I:2-I:11, II:4-II:C; amide I:5-II:N) | 2 |

| SMILES | MIC (Escherichia coli 926415) [µg/mL] | MIC [1] [µg/mL] | MIC [2] [µg/mL] | MIC [3] [µg/mL] | MIC [4] [µg/mL] | MIC [5] [µg/mL] | MIC [6] [µg/mL] | MIC [7] [µg/mL] | Hemolysis at 200 μg/mL [8] [%] |
| --- | --- | --- | --- | --- | --- | --- | --- | --- | --- |
| CC(=O)N[C@@H](CCN)C(=O)N[C@H](C(=O)N[C@H]1CSSC[C@@H](C(=O)N[C@H](C(N)=O)C(C)C)NC(=O)[C@H](C(C)C)NC(=O)[C@@H]2CSSC[C@H](NC(=O)[C@H](Cc3ccc(O)cc3)NC1=O)C(=O)N[C@@H](CCC(=O)N[C@@H](CCN)C(=O)N[C@H](C(=O)N[C@@H](CN)C(=O)N[C@H]1CCNC(=O)[C@H]([C@@H](C)O)NC(=O)[C@H](CCN)NC(=O)[C@H](CCN)NC(=O)[C@H](CC(C)C)NC(=O)[C@@H](CC(C)C)NC(=O)[C@H](CCN)NC1=O)[C@@H](C)O)C(=O)N[C@H](CCN)C(=O)N[C@@H](CO)C(=O)N[C@@H](Cc1c[nH]c3ccccc13)C(=O)N2)[C@H](O)C(C)C [Ex. 235] (I: Ac-[Dab][Leu(3R-OH)]CYCE[dDab]SWCVCV-NH2 / II: [Dab]T[Dap][Dab][Dab][dL]L[Dab][Dab]T; disulfide I:3-I:12, I:5-I:10; amide I:6-II:N; lactam II:4-II:C) | 0.125 (≈ 0.0489 µM) | 0.0625 (≈ 0.0244 µM) | 0.25 (≈ 0.0977 µM) | 0.25 (≈ 0.0977 µM) | 0.0625 (≈ 0.0244 µM) | 0.25 (≈ 0.0977 µM) | 0.25 (≈ 0.0977 µM) | 0.0625 (≈ 0.0244 µM) | 4 |
